# How the values were obtained:
# [1] = Blood levels in rats, oral administration of Test Compound for 8 days (toxicology studies); type: in vivo; details: rat; for Cmax at 8 days: blood
# From the text: In toxicology studies in rats, oral administration of Test Compound (TC) for 8 days produced the following C max and AUC: […]
# [2] = system: rats subjected to li-pilo SE; assay: Example 2: mortality over the first 48 h after Li-pilo SE; type: in vivo, rat; set-up: concentration or dose not given beside the values
# [3] = system: rats subjected to Li-pilo induced SE; assay: Example 1: latency to and frequency of spontaneous recurrent seizures (SRS), lithium-pilocarpine model; type: in vivo, rat
# Description: The bilateral EEG cortical activity was recorded during the whole duration of SE and behavioral changes were noted.
# The effects of increasing doses of the Test Compound were studied on 3 groups of rats. The animals of the first group received 10 mg/kg of the test compound, i.p., 1 h after the onset of SE (pilo-TC10) while the animals of groups 2 and 3 received 30 and 60 mg/kg of the Test Compound (pilo-TC30 and pilo-TC60), respectively.
# The control group received saline instead of pilocarpine and the Test Compound (saline-saline). […] Pilo-DZP received a second injection of 1 mg/kg DZP on the day of SE at about 10 h after the first one. Thereafter, Pilo-DZP and saline-saline rats received twice daily an equivalent volume of saline.
# The effects of the test compound on the EEG and on the latency to occurrence of SRS were investigated by daily video recording of the animals for 10 h per day and the recording of the electrographic activity twice a week for 8 h.
# To calculate the frequency of SRS in pilocarpine-exposed rats, the seizure severity and distinguished stage III (clonic seizures of facial muscles and anterior limbs) and stage IV-V seizures (rearing and falling) was measured. The frequency of stage III SRS per week in pilo-DZP and pilo-test compound rats was variable amongst the groups. It was low, constant in the pilo-DZP and pilo-TC60 (with early SRS onset) groups during the first 3 weeks and had disappeared during the 4th week in the pilo-DZP group. […] The frequency of more severe stage IV-V SRS was highest during the first week in most groups, except pilo-TC30 and TC60 with late seizure onset where the SRS frequency was constant over the whole 4 weeks in TC30 group and over the first two weeks in the pilo-TC60 group with late SRS onset in which no stage IV-V seizures where no seizures recorded after the second week.
# [4] = Blood levels in humans, oral administration of Test Compound for 7 days (toxicology studies); type: in vivo, human; details: for Cmax at 7 days: blood; for Cmax at 7 days / AUC (0-24): human
# From the text: In toxicology studies in humans, oral administration of Test Compound at various doses for 7 days produced the following C max's and AUC (0-24): […]
# [5] = Example 3 study 1: single oral dose pharmacokinetics in healthy men; type: in vivo, human
# Description: Two single-center, placebo-controlled, double-blind, ascending-dose studies were conducted in healthy men ≧18 and ≦45 yrs. In study 1 (N=70), subjects were randomly assigned to a single dose of Test Compound (TC) or placebo. Escalated doses were received as 100, 250, 400, 750, 1000, 1250, and 1500 mg. PK parameters were estimated from plasma and urine samples collected up to 3 days post dose. Study 2 (N=53) evaluated the PK of repeated doses of Test Compound (TC) in 4 dose groups (100, 250, 500, or 750 mg). Within each group, 12 subjects were assigned to q12h treatment with drug or placebo for 1 wk and were crossed over after a 14-day washout period. PK parameters were estimated from plasma and urine samples on days 1 and 7.
structure (smiles),measurement,setting,value
NC(=O)OC[C@@H](O)c1ccccc1Cl [TC],Cmax at 8 days,[1]; oral 30 mg/kg/day for 8 days,9330 ng/mL
same,Cmax at 8 days,[1]; oral 100 mg/kg/day for 8 days,20600 ng/mL
same,Cmax at 8 days,[1]; oral 300 mg/kg/day for 8 days,70300 ng/mL
same,AUC,[1]; oral 30 mg/kg/day for 8 days,97.32 micrograms-hour/mL
same,AUC,[1]; oral 100 mg/kg/day for 8 days,230.33 micrograms-hour/mL
same,AUC,[1]; oral 300 mg/kg/day for 8 days,525.95 micrograms-hour/mL
same,mortality over the first 48 h after SE,"[2]; TC30, group for cell counting at 14 days",33%
same,mortality over the first 48 h after SE,"[2]; TC30, group for latency to SRS and late cell counting",27%
same,mortality over the first 48 h after SE,"[2]; TC60, group for cell counting at 14 days",8%
same,mortality over the first 48 h after SE,"[2]; TC60, group for latency to SRS and late cell counting",0%
same,mortality over the first 48 h after SE,"[2]; TC90, group for cell counting at 14 days",0%
same,mortality over the first 48 h after SE,"[2]; TC90, group for latency to SRS and late cell counting",0%
same,mortality over the first 48 h after SE,"[2]; TC120, group for cell counting at 14 days",33%
same,mortality over the first 48 h after SE,"[2]; TC120, group for latency to SRS and late cell counting",0%
same,rats in which occurrence of spontaneous seizures was delayed,[3]; TC 60 mg/kg (4 out of 11),36%
same,mean delay to epilepsy in subgroup vs other groups of animals,"[3]; TC 60 mg/kg, subgroup",about 9 fold longer
same,latency to SRS,"[3]; TC60, subgroup with latency similar to other groups (n=7)",17.6 ± 8.7 days
same,"latency to SRS, mean","[3]; TC60, subgroup with much longer delay (n=4)",149.8 ± 36.0 days
same,frequency of stage IV-V SRS,"[3]; first week, TC10, TC30 and TC60 (with early SRS onset) groups",2.3-6.1 SRS per week
same,frequency of stage III SRS,"[3]; pilo-TC10 group, weeks 3 and 4",significantly increased over pilo-DZP values
same,latency to SRS,[3]; pilo-TC10 rats,15.4 ± 5.1 days
same,latency to SRS,[3]; pilo-TC30 rats,18.9 ± 9.0 days
same,frequency of stage IV-V SRS,"[3]; weeks 2-4, pilo-TC60 group with early SRS onset",0.6-0.9 seizure per week
same,tolerability in humans,[4]; 750 mg twice a day (1500 mg/day),easily tolerated
same,Cmax at 7 days,[4]; oral 100 mg b.i.d. for 7 days,3600 ng/mL
same,Cmax at 7 days,[4]; oral 250 mg b.i.d. for 7 days,8200 ng/mL
same,Cmax at 7 days,[4]; oral 500 mg b.i.d. for 7 days,17200 ng/mL
same,Cmax at 7 days,[4]; oral 750 mg b.i.d. for 7 days,28200 ng/mL
same,AUC (0-24),[4]; oral 100 mg b.i.d. for 7 days,42.2 micrograms-hour/mL
same,AUC (0-24),[4]; oral 250 mg b.i.d. for 7 days,102.3 micrograms-hour/mL
same,AUC (0-24),[4]; oral 500 mg b.i.d. for 7 days,204.1 micrograms-hour/mL
same,AUC (0-24),[4]; oral 750 mg b.i.d. for 7 days,322.7 micrograms-hour/mL
same,Tmax,"[5]; male, human, plasma, single oral dose 100-1500 mg, healthy men",1.3 to 2.7 h
same,half-life,"[5]; male, human, plasma, single oral dose 100-1500 mg, healthy men, read-out: Mean t1/2",690 to 834 min
same,Cmax and AUC0-∞ dose dependence,[5]; single dose over the range of 100-1500 mg,increased in proportion to dose
same,Mean CL/F,"[5]; single oral dose 100-1500 mg, healthy men",2.87 to 3.67 L/h
same,absorption following oral administration,"[5]; single oral dose, healthy men",rapidly absorbed

# Reference: US20110152362A1, “METHODS OF TREATING EPILEPTOGENESIS AND EPILEPSY” (priority 2004, published 2011)
